As a reminder, the MIC is the lowest concentration found to suppress growth. Read a low MIC as greater potency.

In brackets after ≈: the same amount, converted by molar mass. Activity calls are given as the source filed them. The calls are words filed in the database; no cut-off is given here.

Holding throughout (assay type): functional
One experiment relates to Staphylococcus aureus. The experiment can be described thus: Antibacterial activity against Staphylococcus aureus ATCC 25923 after 16 hrs by microdilution assay. Conditions: ATCC 25923, 16 h. For orientation: In broth dilution the organism is exposed to a series of concentrations in liquid medium.
The test system of the next experiment is Bacillus subtilis. Briefly: Antibacterial activity against Bacillus subtilis ATCC 6633 after 16 hrs by microdilution assay. Conditions: ATCC 6633, 16 h.
A further experiment has as its system Escherichia coli. Briefly: Antibacterial activity against Escherichia coli ATCC 25922 after 16 hrs by microdilution assay. Particulars: ATCC 25922, 16 h.
For the next experiment, the system named is Candida albicans. The experiment can be described thus: Antifungal activity against Candida albicans ATCC 10259 after 3 days by microdilution assay.
Another experiment has as its system Penicillium expansum. Briefly: Antifungal activity against Penicillium expansum ATCC 7861 after 3 days by microdilution assay.
The next experiment relates to Aspergillus niger. The experiment can be described thus: Antifungal activity against Aspergillus niger ATCC 6275 after 3 days by microdilution assay.
Experiment [1] concerns Trichophyton mentagrophytes. The experiment can be described thus: Antifungal activity against Trichophyton mentagrophytes ATCC 9533 after 3 days by microdilution assay.
The next experiment has as its system P388. The experiment can be described thus: Cytotoxicity against mouse P388 cells.

`COc1ccc(-c2coc3cc(O)ccc3c2=O)cc1` [FORMONONETIN]: the MIC was over 100 µg/mL against Staphylococcus aureus; over 100 µg/mL in the experiment on Bacillus subtilis; 100 µg/mL (≈ 373 µM) against Escherichia coli; over 100 µg/mL in the experiment on Candida albicans (ATCC 10259, 72 h); 50 µg/mL (≈ 186 µM) in the experiment on Penicillium expansum (ATCC 7861, 72 h); 100 µg/mL (≈ 373 µM) against Aspergillus niger (ATCC 6275, 72 h). This compound also displayed a minimal inhibitory concentration (MIC) in experiment [1] (ATCC 9533, 72 h) of over 100 µg/mL.

Regarding `COC1=CC(=O)C(c2coc3cc(O)cc(O)c3c2=O)=CC1=O`, the MIC with Staphylococcus aureus was over 100 µg/mL; in the experiment with Bacillus subtilis, 100 µg/mL (≈ 318 µM); against Escherichia coli, 50 µg/mL (≈ 159 µM); against Candida albicans (ATCC 10259, 72 h), over 100 µg/mL; with Penicillium expansum (ATCC 7861, 72 h), over 100 µg/mL; against Aspergillus niger (ATCC 6275, 72 h), over 100 µg/mL. Moreover, in experiment [1] (ATCC 9533, 72 h), the minimal inhibitory concentration (MIC) worked out at 100 µg/mL (≈ 318 µM). For the same compound, in the experiment with P388, the ED50 entry is “inactive”.

With `CN(C)[C@@H]1C(O)=C(C(N)=O)C(=O)[C@@]2(O)C(O)=C3C(=O)c4c(O)cccc4[C@@](C)(O)[C@H]3C[C@@H]12` [TETRACYCLINE], the MIC against Staphylococcus aureus amounted to 0.6 µg/mL (≈ 1.35 µM); against Bacillus subtilis it was 2.5 µg/mL (≈ 5.63 µM); with Escherichia coli, 1.2 µg/mL (≈ 2.7 µM).

Consider `COC1=CC(=O)C([C@@H]2COc3cc(O)ccc3C2)=CC1=O`, for which the minimum inhibitory concentration (MIC) against Staphylococcus aureus is 6 µg/mL (≈ 21 µM); in the experiment with Bacillus subtilis, 3 µg/mL (≈ 10.5 µM); in the experiment with Escherichia coli, 6 µg/mL (≈ 21 µM); with Candida albicans (ATCC 10259, 72 h) it was 50 µg/mL (≈ 175 µM); in the experiment with Penicillium expansum (ATCC 7861, 72 h), over 100 µg/mL; against Aspergillus niger (ATCC 6275, 72 h) it was 100 µg/mL (≈ 349 µM). This compound also gave an MIC in experiment [1] (ATCC 9533, 72 h) of 25 µg/mL (≈ 87.3 µM). For the same compound, the EC50 with P388 (read-out: ED50 (the source's name)) turned out to be 0.5 µg/mL (≈ 1.75 µM).

Consider `COc1ccc([C@@H]2COc3cc(O)ccc3C2)c(O)c1`, for which the minimal inhibitory concentration (MIC) with Staphylococcus aureus is over 100 µg/mL; in the experiment on Bacillus subtilis it was 50 µg/mL (≈ 184 µM); in the experiment on Escherichia coli, 50 µg/mL (≈ 184 µM); against Candida albicans (ATCC 10259, 72 h), over 100 µg/mL; in the experiment on Penicillium expansum (ATCC 7861, 72 h), over 100 µg/mL; with Aspergillus niger (ATCC 6275, 72 h), over 100 µg/mL. In addition, the MIC in experiment [1] (ATCC 9533, 72 h) is 25 µg/mL (≈ 91.8 µM).

Turning to `COc1ccc(C2COc3cc(O)ccc3C2)c(OC)c1O` (racemic) [MUCRONULATOL(+/-)], the MIC was over 100 µg/mL in the experiment with Staphylococcus aureus; over 100 µg/mL against Bacillus subtilis; 50 µg/mL (≈ 165 µM) in the experiment on Escherichia coli; over 100 µg/mL against Candida albicans (ATCC 10259, 72 h); over 100 µg/mL against Penicillium expansum (ATCC 7861, 72 h); over 100 µg/mL with Aspergillus niger (ATCC 6275, 72 h). It took 25 µg/mL (≈ 82.7 µM) to inhibit growth in experiment [1] (ATCC 9533, 72 h) (MIC).

In the case of NYSTATIN, the MIC with Candida albicans amounted to 1.5 µg/mL; against Penicillium expansum, 6 µg/mL; against Aspergillus niger, 6 µg/mL; in experiment [1] it was 3 µg/mL.

The record behind these values is ChEMBL document CHEMBL1150723, “Traditional medicinal plants of Thailand, VIII. Isoflavonoids of Dalbergia candenatensis” (1987).
